Test results from patent US7776558B2, “Human G protein-coupled receptor and modulators thereof for the treatment of cell death-related disorders” (Arena Pharmaceuticals, Inc., priority 2003, dated 2010).
Where no end group is shown, it is not given here.

Tests used:
FPR [1] = target: T1, FPR (Homo sapiens, UniProt P21462); assay: IP3 assay, HEK293 cells transiently transfected with FPR (negative control); type: cell-based; design: Full-Length Cloning of Human GPCRs; expressed in transfected cells; host or cells: HEK293 cells, transient; conditions: not shown
T1 sequence (P21462 1-350): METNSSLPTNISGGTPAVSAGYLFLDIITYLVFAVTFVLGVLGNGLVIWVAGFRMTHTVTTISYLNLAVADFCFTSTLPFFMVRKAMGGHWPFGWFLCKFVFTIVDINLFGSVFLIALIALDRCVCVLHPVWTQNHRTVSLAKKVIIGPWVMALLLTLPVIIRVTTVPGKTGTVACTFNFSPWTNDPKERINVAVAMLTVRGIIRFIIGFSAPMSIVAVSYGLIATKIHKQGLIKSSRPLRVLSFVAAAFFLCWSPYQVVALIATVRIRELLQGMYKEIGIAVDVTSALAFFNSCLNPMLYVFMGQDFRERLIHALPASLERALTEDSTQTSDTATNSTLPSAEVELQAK

FPRL2 = target: T2, FPRL2 (Homo sapiens, UniProt P25089); assay: Pertussis toxin sensitivity of signaling, adenylate cyclase assay in HEK293 cells; type: cell-based; design: expressed in transfected cells; conditions: pre-treated 18 to 20 hrs with 50 ng/ml pertussis toxin; 5 μM forskolin; FIG. 7
T2 sequence (P25089 1-353): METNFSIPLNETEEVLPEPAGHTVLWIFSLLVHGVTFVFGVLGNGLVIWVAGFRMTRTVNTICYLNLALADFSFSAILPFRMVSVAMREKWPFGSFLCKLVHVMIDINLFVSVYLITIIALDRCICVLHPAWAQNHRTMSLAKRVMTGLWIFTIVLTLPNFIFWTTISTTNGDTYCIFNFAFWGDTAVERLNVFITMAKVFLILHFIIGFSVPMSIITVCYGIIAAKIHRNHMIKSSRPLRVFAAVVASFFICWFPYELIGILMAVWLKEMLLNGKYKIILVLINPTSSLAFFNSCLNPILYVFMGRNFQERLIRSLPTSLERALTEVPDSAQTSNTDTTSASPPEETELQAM
Procedure: The pertussis toxin sensitivity of Compound 1 signalling through human FPRL2 was determined similarly.
Samples were then assessed for cAMP levels as described in Example 4, supra.

[2] = test system: primary mouse cortical neurons; assay: 22C11 (anti-APP antibody)-induced cell death of primary mouse cortical neurons; type: cell-based; conditions: added 1 h prior to mAb 22C11; overnight (~18 h); LDH assay; FIG. 11B
Description: 22C11 is a monoclonal antibody (mAb) which binds to the extracellular domain of the human, rat or mouse β-amyloid precursor protein (APP) (Boehringer Mannheim; Indianapolis, Ind.).
The assay was set up essentially as described by Rohn et al. [Neurochem (2000) 74:2331-2342]. Briefly, the primary cultures of mouse cortical neurons were established from E17 embryos. The gestational pups were humanely decapitated, and the brain was harvested into Hanks Buffered Salt Solution (HBSS) buffer. The cortices were taken and processed with trypsin (0.05% in HBSS), after which the cells were mechanically dissociated using a 21 g needle. The cell suspension was then passed through a […] filter, and the recovered cells plated on poly-D-lysine-treated 12-well plates. After five days of culture, the cells were used for assay.
For the assay, four experimental groups were set up. […] In the “22C11” group, cells were cultured in the presence of mAb 22C11 alone. […] The assay was allowed to proceed overnight (˜18 h), after which cell viability was determined by LDH assay as described in Example 25.

FPR [3] = target: T1, FPR; assay: [35S]GTPγS binding assay, membranes of transiently transfected CHO cells; type: biochemical; design: Full-Length Cloning of Human GPCRs; expressed in transfected cells; host or cells: CHO-K1 cells, transient, pCMV; plasma membranes; conditions: FIG. 3 panel C; up to a dose of 10 μM
Procedure: The plasmids used were HA/V5 doubled tagged endogenous FPRL2 in pCMV, HA/V5 double-tagged endogenous FPRL1 in pCMV, HAN5 double-tagged endogenous FPR in pCMV, and pCMV alone (See, Example 1). Transient transfections were carried out on CHO-K1 cells. To a 15 cm dish of confluent cells, 12 μg of plasmid DNA and 60 μl Lipofectamine (Invitrogen, Carlsbad, Calif.) were added to each plate. Twenty-four hours post-infection, plasma membranes were isolated as described below. Assays were then run as described below.
“Membrane Scrape Buffer” consists of 20 mM HEPES and 10 mM EDTA, pH 7.4; “Membrane Wash Buffer” consists of […] and 0.1 mM EDTA, pH 7.4; “Binding. Buffer” consists of 20 mM HEPES, 100 mM NaCl, and 10 mM MgCl2, pH 7.4.
All materials were kept on ice throughout the procedure. Firstly, the media was aspirated from a confluent monolayer of transfected cells, followed by rinse with 10 ml cold PBS, followed by aspiration. Thereafter, 10 ml of Membrane Scrape Buffer was added to scrape cells; this was followed by transfer of cellular extract into 50 ml centrifuge tubes (centrifuged at 20,000 rpm for 17 minutes at 4° C.). […]
First, 100 μl GDP Buffer was added to each well of a Wallac Scintistrip™ (Wallac). […] The plates were then read on a Wallac 1450 using setting “Prot. #37” (as per manufacturer instructions).

Molecule	IP3 response in HEK293 cells transiently transfected with FPR (FPR [1])	Pertussis toxin sensitivity of the inhibition of cAMP through FPRL2 (FPRL2)	Protection from cell death induced by anti-APP mAb 22C11 [2]	Activity at FPR, promoted [35S]GTPγS binding (FPR [3])
CC(C)c1ccc2c(c1)CCC1C(C)(C(N)=O)CCCC21C (centres unmarked) [Compound 1, 7-Isopropyl-1,4a-dimethyl-1,2,3,4,4a,9,10,10a-octahydro-phenanthrene-1-carboxylic acid amide]	no IP3 response	pertussis sensitive	protect primary mouse cortical neurons from cell death	–
CC[C@H](C)[C@H](NC(=O)[C@H](CCC(=O)O)NC(=O)[C@H](CO)NC(=O)[C@@H](NC(=O)[C@H](CC(C)C)NC(=O)[C@H](CC(C)C)NC(=O)[C@H](CC(C)C)NC(=O)[C@H](CC(C)C)NC(=O)[C@H](CS)NC(=O)[C@H](CO)NC(=O)[C@H](Cc1ccccc1)NC(=O)CNC(=O)[C@H](CCCNC(=N)N)NC(=O)[C@@H]1CCCN1C(=O)[C@H](C)NC(=O)[C@@H](N)CCSC)[C@@H](C)O)C(=O)N[C@@H](CC(=O)O)C(=O)N[C@@H](CC(C)C)C(=O)N1CCC[C@H]1C(=O)N[C@H](C(=O)N[C@@H](CCCCN)C(=O)N[C@@H](CCCNC(=N)N)C(=O)N[C@@H](CCCNC(=N)N)C(=O)N[C@@H](C)C(=O)O)C(C)C [Humanin]	no IP3 response	pertussis sensitive	protect primary mouse cortical neurons from cell death	Neither Humanin nor [Gly14]-Humanin evidence significant activity
MAPRGFSCLLLLTGEIDLPVKRRA [[Gly14]-Humanin]	–	–	–	Neither Humanin nor [Gly14]-Humanin evidence significant activity
